SMILES strings stand for the structures. Where two headings read alike, the source gives them in different places.

Data set [1] is described as follows: Kinetic solubility in PBS buffer pH 7.4. The format is physicochemical. The following applies: aqueous buffer, kinetic from dmso stock; PBS buffer pH 7.4, 90 minutes at room temperature, from 10 mM DMSO stock. The method, then: The kinetic solubility assay investigates a solubility based on the amount of material which remains in solution after a precipitation process. […] Assay is performed using Multiscreen Vacuum Manifold. A buffer of interest (in standard protocol PBS buffer at pH=7.4 is used) is spiked with stock solution and incubated for 90 minutes at room temperature. After that time solution/suspension is filtrated. The concentration of each compound is determined on the base of prepared calibration curve using UV-VIS spectrophotometry method. The assay is made in triplicate.
Buffer of interest: 0.24 g of KH2PO4, 1.44 g of Na2HPO4, 0.2 g of KCl and 8 g NaCl and dissolve in 1 L distilled H2O; adjust pH to appropriate value (pH 7.4). 190 μl of buffer of interest was dispensed into the wells of a 96 well filter plate, followed by 10 μl of compound (10 mM stock solution in DMSO). The plate was shaken gently at room temperature for 90 minutes at 500 rpm using a BioSan, Plate Shaker-Thermostat, PST-60 HL-4. After 90 minutes, the plate was filtered using a vacuum manifold and vacuum pump. 100 μl of each filtrate and 100 μl acetonitrile was transferred to a 96 well UV-visible light transparent plate and the UV-visible absorption spectrum was measured using a Biotek Synergy 2 multiplate reader from 250-500 nm, interval range 10 nm. The amount of test compound was calculated using a calibration curve prepared by serial dilution of compounds in equivalent amounts of DMSO and acetonitrile.

Data set [2] deals with T1, full-length human GCN2 enzyme (Homo sapiens, UniProt Q9P2K8).
T1 construct: purchased Carna Bioscience
Put plainly: GCN2 enzyme inhibition, LanthaScreen TR-FRET Kinase Activity assay (10 μM and 300 μM ATP). The data set is classed as biochemical. The following applies: mean of replicate assays. The method, then: Biological and Pharmacokinetic Testing (a) GCN2 Enzyme Inhibition (10 μM and 300 μM Assays) Assay Protocol Overview:
The inhibitory activity of the Example compounds towards GCN2 enzyme was measured according to the description below, using a LanthaScreen TR-FRET (Time Resolved Fluorescence Resonance Energy Transfer) Kinase Activity assay distributed by ThermoFisher Scientific.
The full-length human GCN2 enzyme (UniProt accession number Q9P2K8) was used for all experiments (Carna Bioscience). The TR-FRET pair was composed of GFP-eIF2α and LanthaScreen Terbium-labeled anti-peIF2α (pSer52) Antibody.
Each example compound was dissolved in DMSO (0.15 mM) and dispensed in a 384-well plate by a D300 dispenser (Tecan) to a final concentration range 3000-0.13 nM using the logarithmic dilution mode in 2 replicates. Full inhibition (3000 nM commercial reference inhibitor) and DMSO vehicle control wells were also included on the same plate. All volumes were normalized to the final DMSO concentration of 2% of the reaction volume. Next, 5 μL of H2O was added to each well of the plate.
The enzyme mixture was prepared to obtain the following concentrations: • GCN2—30 nM • unloaded tRNA—0.3 nM • HEPES (pH=7.0)—100 mM • MgCl2—20 mM; MnCl2—10 mM
The mixture was applied by adding 5 μL to each well of the plate. The enzyme and the tested compound were then incubated at room temperature for 20 min while shaking at 450 rpm.
The substrate mixture was prepared to obtain the following concentrations: • GFP-eIF2α—240 nM • ATP—900 μM or 30 μM • HEPES (pH=7.0)—50 mM • MgCl2—10 mM • MnCl2—5 mM.
The mixture was applied by adding 5 μL to each well of the plate. Thus, the final concentrations of the 15 μL reaction mixture were as follows: • GCN2—10 nM • unloaded tRNA—0.1 nM • GFP-eIF2α—80 nM • ATP—300 μM or 10 μM • HEPES (1 M, pH=7.0)—50 mM • MgCl2—10 mM • MnCl2—5 mM.
The reaction was allowed to proceed at room temperature for 30 min while shaking at 450 rpm.
The antibody mixture was prepared to obtain the following concentrations: • Na2EDTA·2H2O—40 mM, in TR-FRET Dilution Buffer (Life technologies) • Tb—anti-peIF2a antibodies—4 nM.
The mixture was applied by adding 15 μL to each well. The plate was then incubated at room temperature for 60 min while shaking at 450 rpm and then read using Tecan Spark reader using specific TR-FRET filters.
The analysis of the GFP/Tb fluorescence results was conducted with GraphPad Prism to determine IC50 for each of the example compounds using 4-parameter model: log(inhibitor) vs. response-variable slope. IC50 and K, values were calculated in the usual way. The assay was carried out between 1 and 15 times. The results in the table below are the mean results from replicate assays for the compound in question, where applicable.
For orientation: Time-resolved FRET reads energy transfer from a long-lived donor to a nearby acceptor.

[3] abbreviates: read-out: GCN2 IC50 (nM) 300 uM ATP, 300 uM ATP.
[4] abbreviates: read-out: GCN2 Ki (nM) 300 uM ATP, 300 uM ATP.
[5] abbreviates: read-out: GCN2 IC50 (nM) 10 uM ATP, 10 uM ATP.
The mark [6] stands for this setting: read-out: GCN2 Ki (nM) 10 uM ATP, 10 uM ATP.

T1 sequence (Q9P2K8 whole entry): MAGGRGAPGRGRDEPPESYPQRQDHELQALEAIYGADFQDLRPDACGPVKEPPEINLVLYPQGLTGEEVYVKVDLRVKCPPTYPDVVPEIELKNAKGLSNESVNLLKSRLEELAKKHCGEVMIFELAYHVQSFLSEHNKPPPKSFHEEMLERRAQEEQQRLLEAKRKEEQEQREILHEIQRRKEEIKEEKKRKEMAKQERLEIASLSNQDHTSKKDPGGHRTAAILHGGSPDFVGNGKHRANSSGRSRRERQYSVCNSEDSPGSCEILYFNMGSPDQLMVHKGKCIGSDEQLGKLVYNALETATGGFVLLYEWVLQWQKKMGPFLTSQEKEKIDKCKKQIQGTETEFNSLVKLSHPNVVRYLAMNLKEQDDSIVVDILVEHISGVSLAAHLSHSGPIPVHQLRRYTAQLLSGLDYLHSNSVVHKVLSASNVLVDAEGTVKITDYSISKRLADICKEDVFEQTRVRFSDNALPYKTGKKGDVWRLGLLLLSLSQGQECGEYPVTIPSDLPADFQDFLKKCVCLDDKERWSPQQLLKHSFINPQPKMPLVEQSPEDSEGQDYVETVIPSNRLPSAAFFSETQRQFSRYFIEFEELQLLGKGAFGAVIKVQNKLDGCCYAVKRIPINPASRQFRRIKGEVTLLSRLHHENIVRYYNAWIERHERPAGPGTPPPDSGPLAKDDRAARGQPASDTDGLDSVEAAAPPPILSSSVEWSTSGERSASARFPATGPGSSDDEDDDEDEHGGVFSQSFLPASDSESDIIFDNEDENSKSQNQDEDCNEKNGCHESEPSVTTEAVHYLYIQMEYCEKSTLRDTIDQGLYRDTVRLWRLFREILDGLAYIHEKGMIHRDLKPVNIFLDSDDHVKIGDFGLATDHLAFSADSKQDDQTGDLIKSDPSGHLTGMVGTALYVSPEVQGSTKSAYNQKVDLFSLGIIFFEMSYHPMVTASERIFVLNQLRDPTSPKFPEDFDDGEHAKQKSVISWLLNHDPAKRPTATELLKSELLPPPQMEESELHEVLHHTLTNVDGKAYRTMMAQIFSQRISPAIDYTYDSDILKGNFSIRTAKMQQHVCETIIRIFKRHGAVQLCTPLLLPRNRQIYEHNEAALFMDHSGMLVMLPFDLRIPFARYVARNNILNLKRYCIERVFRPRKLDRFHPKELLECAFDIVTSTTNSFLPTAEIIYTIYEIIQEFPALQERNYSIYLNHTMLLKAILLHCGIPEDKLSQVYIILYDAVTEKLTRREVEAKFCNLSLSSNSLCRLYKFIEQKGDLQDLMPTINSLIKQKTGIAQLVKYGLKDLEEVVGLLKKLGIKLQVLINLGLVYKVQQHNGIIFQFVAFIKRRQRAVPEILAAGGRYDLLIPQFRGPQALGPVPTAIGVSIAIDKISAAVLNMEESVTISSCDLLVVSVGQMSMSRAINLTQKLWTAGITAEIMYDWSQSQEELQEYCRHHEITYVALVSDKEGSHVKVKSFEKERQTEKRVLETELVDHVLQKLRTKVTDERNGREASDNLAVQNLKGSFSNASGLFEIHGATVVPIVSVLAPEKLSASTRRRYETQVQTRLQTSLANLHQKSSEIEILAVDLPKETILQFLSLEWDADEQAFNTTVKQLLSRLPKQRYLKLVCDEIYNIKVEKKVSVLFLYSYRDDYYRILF

`COc1ncc(Cl)cc1S(=O)(=O)Nc1nccc(C#Cc2cnc(N)c3nccnc23)c1F` [Example 38, N-[4-(2-{5-aminopyrido[3,4-b]pyrazin-8-yl}ethynyl)-3-fluoropyridin-2-yl]-5-chloro-2-methoxypyridine-3-sulfonamide]: in data set [1], the solubility (kinetic) at 90 min stood at 0.245 mg/mL. The IC50 in data set [2] (setting [3]) amounted to 55.3 nM. For the same compound, the inhibition constant Ki in data set [2] (setting [4]) came to 0.8 nM.
With `COc1ncc(Cl)cc1S(=O)(=O)Nc1nccc(C#Cc2cncc3ncsc23)c1F` [Example 19, 5-chloro-N-[3-fluoro-4-(2-{[1,3]thiazolo[4,5-c]pyridin-7-yl}ethynyl)pyridin-2-yl]-2-methoxypyridine-3-sulfonamide], the solubility (kinetic) at 90 min in data set [1] worked out at 0.103 mg/mL. The results for the 50% inhibitory concentration (IC50) in data set [2] (setting [5]) and in data set [2] (setting [3]) were 12 nM and 384 nM, respectively. Also, the Ki came to 3.8 nM in data set [2] (setting [6]) and 5.9 nM in data set [2] (setting [4]).
For `COc1ncc(Cl)cc1S(=O)(=O)Nc1nccc(C#Cc2cnc3c(N)nccn23)c1F` [Example 11, N-{4-[2-(8-aminoimidazo[1,2-a]pyrazin-3-yl)ethynyl]-3-fluoropyridin-2-yl}-5-chloro-2-methoxypyridine-3-sulfonamide], in data set [1], the kinetic solubility at 90 min came out at 0.216 mg/mL. The values for the IC50 in data set [2] (setting [5]) and in data set [2] (setting [3]) were 2.3 nM and 71.8 nM, respectively. The results for the Ki in data set [2] (setting [6]) and in data set [2] (setting [4]) were 0.7 nM and 1.1 nM, respectively.
On to `COc1ncc(Cl)cc1S(=O)(=O)Nc1nccc(C#Cc2cncc3[nH]ncc23)c1F` [Example 21, 5-chloro-N-[3-fluoro-4-(2-{1H-pyrazolo[3,4-c]pyridin-4-yl}ethynyl)pyridin-2-yl]-2-methoxypyridine-3-sulfonamide], for which the solubility (kinetic) at 90 min in data set [1] is 0.221 mg/mL. Further, the IC50 in data set [2] (setting [3]) worked out at 158 nM. Also, the Ki in data set [2] (setting [4]) worked out at 2.4 nM.
With `COc1ncc(Cl)cc1S(=O)(=O)Nc1nccc(C#Cc2cnc3[nH]c(=O)[nH]c3c2)c1F` [Example 32, 5-chloro-N-[3-fluoro-4-(2-{2-oxo-1H,2H,3H-imidazo[4,5-b]pyridin-6-yl}ethynyl)pyridin-2-yl]-2-methoxypyridine-3-sulfonamide], the solubility (kinetic) at 90 min in data set [1] was 0.0401 mg/mL. For the same compound, the IC50 in data set [2] (setting [3]) amounted to 48.1 nM. In data set [2] (setting [4]), the Ki came to 0.7 nM.
As to `COc1ncc(Cl)cc1S(=O)(=O)Nc1nccc(C#Cc2cnc3[nH]c(=O)[nH]c3n2)c1F` [Example 28, 5-chloro-N-[3-fluoro-4-(2-{2-oxo-1H,2H,3H-imidazo[4,5-b]pyrazin-5-yl}ethynyl)pyridin-2-yl]-2-methoxypyridine-3-sulfonamide], the solubility (kinetic) at 90 min in data set [1] turned out to be 0.231 mg/mL. In addition, the IC50 in data set [2] (setting [3]) came out at 174 nM. In addition, the Ki in data set [2] (setting [4]) was found to be 2.7 nM.
In the case of `COc1ncc(Cl)cc1S(=O)(=O)Nc1nccc(C#Cc2cnc(N)nc2)c1Cl` [Example 2, N-{4-[2-(2-aminopyrimidin-5-yl)ethynyl]-3-chloropyridin-2-yl}-5-chloro-2-methoxypyridine-3-sulfonamide], the solubility (kinetic) at 90 min in data set [1] was 0.226 mg/mL. The IC50 in data set [2] (setting [5]) came out at 8.1 nM; in data set [2] (setting [3]), 79 nM. The Ki was determined as 2.6 nM in data set [2] (setting [6]) and 1.2 nM in data set [2] (setting [4]).
Consider `COc1ncc(Cl)cc1S(=O)(=O)Nc1nccc(C#Cc2cnc3c(N)cccn23)c1F` [Example 8, N-{4-[2-(8-aminoimidazo[1,2-a]pyridin-3-yl)ethynyl]-3-fluoropyridin-2-yl}-5-chloro-2-methoxypyridine-3-sulfonamide], for which the kinetic solubility at 90 min in data set [1] was determined as 0.214 mg/mL. Besides, the results for the concentration for half-maximal inhibition (IC50) in data set [2] (setting [5]) and in data set [2] (setting [3]) were 9.9 nM and 335 nM, respectively. The figures for the Ki in data set [2] (setting [6]) and in data set [2] (setting [4]) were 3.1 nM and 5.1 nM, respectively.
Consider `Nc1ncc(C#Cc2ccnc(NS(=O)(=O)c3cc(Cl)ccc3Cl)c2F)cn1` [Example 15, N-{4-[2-(2-aminopyrimidin-5-yl)ethynyl]-3-fluoropyridin-2-yl}-2,5-dichlorobenzene-1-sulfonamide], for which the solubility (kinetic) at 90 min in data set [1] came out at 0.224 mg/mL. In addition, in data set [2] (setting [3]), the IC50 came out at 465 nM. In addition, the Ki in data set [2] (setting [4]) came out at 7.1 nM.
Regarding `COc1ncc(Cl)cc1S(=O)(=O)Nc1nccc(C#Cc2cnc(N)c3ncccc23)c1F` [Example 4, N-{4-[2-(8-amino-1,7-naphthyridin-5-yl)ethynyl]-3-fluoropyridin-2-yl}-5-chloro-2-methoxypyridine-3-sulfonamide], the solubility (kinetic) at 90 min in data set [1] turned out to be 0.0295 mg/mL. Besides, the IC50 in data set [2] (setting [5]) came to 2.9 nM; in data set [2] (setting [3]) it was 17.6 nM. Also, the Ki was 0.9 nM in data set [2] (setting [6]) and 0.3 nM in data set [2] (setting [4]).
The corresponding values for `COc1ncc(Cl)cc1S(=O)(=O)Nc1nccc(C#Cc2cncc3nccnc23)c1F` [Example 5, 5-chloro-N-{4-[2-(pyrido[3,4-b]pyrazin-8-yl)ethynyl]-3-fluoropyridin-2-yl}-2-methoxypyridine-3-sulfonamide] are 0.223 mg/mL, 7.8 nM, 186 nM, 2.5 nM and 2.8 nM.
Take `COc1ncc(Cl)cc1S(=O)(=O)Nc1nccc(C#Cc2cnn3cccnc23)c1F` [Example 31, 5-chloro-N-[3-fluoro-4-(2-{pyrazolo[1,5-a]pyrimidin-3-yl}ethynyl)pyridin-2-yl]-2-methoxypyridine-3-sulfonamide]: in data set [1], the kinetic solubility at 90 min is over 0.243 mg/mL. Also, in data set [2] (setting [3]), the IC50 stood at 98.9 nM. The Ki in data set [2] (setting [4]) was found to be 1.5 nM.
With `COc1ncc(Cl)cc1S(=O)(=O)Nc1nccc(C#Cc2cnc3cnccn23)c1F` [Example 26, 5-chloro-N-[3-fluoro-4-(2-{imidazo[1,2-a]pyrazin-3-yl}ethynyl)pyridin-2-yl]-2-methoxypyridine-3-sulfonamide], the kinetic solubility at 90 min in data set [1] was determined as 0.241 mg/mL. Moreover, the IC50 in data set [2] (setting [3]) is 556 nM. In data set [2] (setting [4]), the Ki amounted to 8.5 nM.
Take `COc1ncc(Cl)cc1S(=O)(=O)Nc1nccc(C#Cc2cncc3ncn(C)c23)c1F` [Example 18, 5-chloro-N-[3-fluoro-4-(2-{1-methyl-1H-imidazo[4,5-c]pyridin-7-yl}ethynyl)pyridin-2-yl]-2-methoxypyridine-3-sulfonamide]: the kinetic solubility at 90 min in data set [1] is 0.0243 mg/mL. In addition, the 50% inhibitory concentration (IC50) in data set [2] (setting [5]) stood at 11.3 nM; in data set [2] (setting [3]), 365 nM. Also, the Ki in data set [2] (setting [6]) stood at 3.6 nM; in data set [2] (setting [4]), 5.6 nM.
Turning to `COc1ncc(Cl)cc1S(=O)(=O)Nc1nccc(C#Cc2cncc3cccnc23)c1F` [Example 6, 5-chloro-N-{4-[2-(1,6-naphthyridin-8-yl)ethynyl]-3-fluoropyridin-2-yl}-2-methoxypyridine-3-sulfonamide], the solubility (kinetic) at 90 min in data set [1] is 0.0403 mg/mL. In addition, the values for the IC50 in data set [2] (setting [5]) and in data set [2] (setting [3]) were 6.7 nM and 49.3 nM, respectively. In addition, the Ki is 2.1 nM in data set [2] (setting [6]) and 0.8 nM in data set [2] (setting [4]).

In general, kinetic solubility refers to the concentration staying in solution when a stock, usually in DMSO, is diluted into the medium. By IC50 is commonly meant the concentration that gives 50% inhibition. What is called Ki is the dissociation constant of the complex between target and ligand, obtained from inhibition or displacement.

The record behind these values is US11945799B2, “4-ethynylpyridine derivatives useful as GCN2 inhibitors” (IP2IPO INNOVATIONS LIMITED, priority 2020, dated 2024).
